Patent US20030073662A1, “Regulation of cellular functions by ectopic expression of non-endogenous cell signalling receptors” (priority 1995, published 2003)
Like-named read-outs stand apart in the source and are kept apart here. Positions of bridges follow the written chain, without caps; N, C: chain ends. No end group written: not given here.

Columns and labels:
[1] = tested on: mouse TRH-R / phosphoinositide pathway in primary hepatocytes; assay: Stimulation of inositol phosphate formation in hepatocytes from rats after in vivo transfer of the TRH-R cDNA; format: cell-based, rat
Method: (§1) Primary hepatocytes were exposed to the vectors AdCMV.βgal or AdCMV.mTRH-R. After 24 hr, the cells were labeled for 24 hr with myo-[^3H]inositol (myo-[2-^3H]inositol; 20 Ci/mmol, Amersham Corporation, Arlington Heights, Ill.), incubated (5 min, 37° C.) with 10 mM LiCl, stimulated (60 min, 37° C.) with methyl-TRH. The cells were then lysed, the inositol phosphates were separated by anion-exchange chromatography and the radioactivity counted. The fold stimulation of inositol phosphates formation was calculated as: (dpm in inositol phosphates ×100/dpm in lipids of stimulated cells) (dpm in inositol phosphates ×100/dpm in lipids of unstimulated cells) (35). For each dose of vector, triplicate measurements were made in hepatocytes from two different animals.
(§2) Sprague-Dawley rats (250-300 g, 3 months old, fed ad libitum) were anaesthetized with ketamine-HCl (60 mg/kg) and xylazine (5 mg/kg). The Ad vectors [AdCMV.mTRH-R, AdCMV.βgal, AdCMV.Null (the “Null” vector is similar to the other vectors except that the expression cassette contains the CMV promoter but no recombinant gene) (31)] were administered via the right external jugular vein (5×10^9 pfu, 100 μl 0.9% NaCl). The livers were recovered 5 days later.
Measurement of inositol phosphates formation was identical to that described for FIG. 3. Triplicate measurements were made from three individual animals per condition.

[2] = tested on: mouse TRH-R / phosphoinositide pathway in primary hepatocytes; assay: Stimulation of inositol phosphate formation in hepatocytes after in vitro transfer of the TRH-R cDNA; format: cell-based, rat
From the text: The replication-deficient recombinant adenovirus vectors are all E1a^−, partial E1b^−, partial E3^− based on adenovirus type 5, in which an expression cassette containing a promoter, driving the expression of a recombinant gene, is inserted at the site of the El deletion. AdCMV.mTRH-R contains an expression cassette with the cytomegalovirus early intermediate promoter/enhancer (CMV) followed by the mouse thyrotropin releasing hormone receptor (TRH-R) cDNA (30). AdCMV.βgal carries the CMV promoter and the E.coli LacZ gene [encoding β-galactosidase (βgal)] (31). The adenovirus vectors were prepared, purified, and titered as previously described (32,33). […]
as §1, with “For each dose of vector, triplicate measurements were made in hepatocytes from two different animals.” left out

[3] = target: T1, mouse thyrotropin releasing hormone receptor (TRH-R) (Mus musculus, UniProt P21761); format: binding
T1 construct: containing the protein-coding region of the mouse TRH-R cDNA, nucleotides 233-1462 of plasmid pBSmTRHR; expressed in transfected cells; host or cells: Primary Sprague-Dawley rat hepatocytes transduced with adenovirus AdCMV.mTRH-R, either in vitro (moi 1-100) or in vivo (i.v., hepatocytes isolated 5 days later)
Method: (§3) FIG. 2 illustrates the binding of methylthyrotropin releasing hormone (methyl-TRH) to hepatocytes following adenovirus-mediated in vitro transfer of the TRH-R cDNA. […] Following incubation for 24 hr with the vectors AdCMV.βgal or AdCMV.mTRH-R, the hepatocytes (10^6/well) were incubated for 60 min with [^3H]methyl-TRH (82.5 Ci/mmol, New England Nuclear-Dupont, Boston, Mass.) or [^3H]methyl-TRH plus excess unlabeled methyl-TRH (Sigma, St. Louis, Mo.). Free ligand was removed by aspirating the medium and washing the cells 5 times with 2 ml (4° C.) Hanks balanced salt solution. Cell associated radioactivity was measured by dissolving the cells with 1 ml of 0.4 N NaOH and counting. Specific binding of the [^3H]methyl-TRH was calculated as: [(dpm of [^3H]methyl-TRH)-(dpM [^3 H]methyl-TRH in the presence of unlabeled methyl-TRH)] (34). For each dose of the vector, triplicate measurements were made in hepatocytes from two different animals. The number of TRH-R receptor sites was calculated assuming a one-to-one stoichiometry of ligand to receptor and a homogeneous distribution of TRH-Rs.

[4] = target: T1, mouse thyrotropin releasing hormone receptor (TRH-R); assay: [3H]methyl-TRH binding to primary hepatocytes from rats after in vivo adenovirus-mediated transfer of the TRH-R cDNA; parameters: species or system rat
Method: as §3, §2
FIGS. 4 and 5 are Northern analyses. Liver RNA (10 μg/lane) was evaluated with a mouse TRH-R cDNA probe (FIG. 4, lanes 1 and 2) or, as a positive control, […] cDNA (FIG. 5, lanes 3 and 4). The sizes of the transcripts are indicated. Lanes 1 and 3 (FIG. 4 and FIG. 5, respectively) are animals receiving AdCMV. βgal. […] The analysis of [^3H]methyl-TRH binding was identical to that described for FIG. 2. Triplicate measurements were made from three individual animals per condition.

Sprague-Dawley rats = assay: Modulation of serum glucose in rats after in vivo transfer of the TRH-R cDNA to the liver; parameters: species or system rat
Method: as §2
The vectors AdCMV.mTRH-R or AdCMV.Null (5×10^9 pfu), or saline (0.9%) as negative control (all in 100 μl) were administered to rats as described above. Five days later, the animals were anaesthetized by methoxyflurane (Pitman-Moore, Mundelein, Ill.) inhalation and the left and right external jugular veins were cannulated. After 15 min to permit stabilization, a 15 min baseline period was started, during which serum samples for glucose levels were obtained every 5 min. At “0 time” methyl-TRH (500 μg in 100 μl) or saline (0.9%, 100 μl ) was administered in one cannula and the serum samples obtained from the other cannula every 5 min for 55 min. Serum glucose levels were determined by colormetric assay (Sigma Diagnostics, St. Louis, Mo.).
The baseline glucose levels were determined for each animal as an average from −15 to 0 before administration of methyl-TRH or saline. The data are presented as the absolute change from the average baseline serum glucose level (mM) using each individual animal as its own control, and averaging the values at each time point for each group of animals. AdCMV.mTRH-R (IV)/TRH=vector administered intravenously at day 0, methyl-TRH administered at day 5, n=6 animals; AdCMV.mTRH-R(IP)/TRH=vector administered via the portal vein at day 0, methyl-TRH administered at day 5, n=5; AdCMV.Null(IV)/TRH=vector administered intravenously at day 0, methyl-TRH at day 5, n=6; saline/TRH=saline administered instead of vector at day 0, methyl-TRH at day 5, n=6; and naive/saline=nothing administered at day 0, saline at day 5, n=5. The data is presented as the mean for all animals in the group at each time point. The normal range for serum glucose Sprague-Dawley rats is 2.5 6.7 mM(36).
FIG. 9 illustrates the average change in serum glucose levels from baseline. The average change in serum glucose levels from baseline was determined for each time point from 15 to 55 min after administration of methyl-TRH or saline on day 5. The data are presented as mean±standard deviation. All statistical comparisons were made using the two-tailed Student's t-test.

[5] = hepatocytes uninfected or infected with control vector AdCMV.βgal
[6] = read-out: Kd of methyl-TRH binding
[7] = hepatocytes from AdCMV.mTRH-R infected animals, not shown

T1 sequence (P21761 whole entry): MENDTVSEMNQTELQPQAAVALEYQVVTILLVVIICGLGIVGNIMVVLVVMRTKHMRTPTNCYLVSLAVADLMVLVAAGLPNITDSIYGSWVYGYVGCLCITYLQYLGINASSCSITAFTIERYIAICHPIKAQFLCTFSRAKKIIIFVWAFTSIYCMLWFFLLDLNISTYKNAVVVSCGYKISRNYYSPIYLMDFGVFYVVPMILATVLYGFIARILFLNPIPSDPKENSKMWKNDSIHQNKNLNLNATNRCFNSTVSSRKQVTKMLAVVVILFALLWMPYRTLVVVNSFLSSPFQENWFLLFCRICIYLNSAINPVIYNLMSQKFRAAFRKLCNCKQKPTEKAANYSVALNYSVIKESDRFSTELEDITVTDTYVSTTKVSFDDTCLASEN

Compound: NC(=O)[C@@H]1CCCN1C(=O)[C@H](Cc1cnc[nH]1)NC(=O)[C@@H]1CCC(=O)N1 [TRH, thyrotropin-releasing hormone]
- fold stimulation of inositol phosphate formation above controls of no added methyl-TRH ([1]; hepatocytes from animals infected 5 days previously with AdCMV.mTRH-R): 16.9±1.8 fold
- stimulation of inositol phosphate formation ([1]; hepatocytes from uninfected animals and animals infected in vivo with AdCMV.βgal): no stimulation of inositol phosphate formation

Compound: Cn1cnc(C[C@H](NC(=O)[C@@H]2CCC(=O)N2)C(=O)N2CCC[C@H]2C(N)=O)c1 [methyl-TRH, methylthyrotropin releasing hormone]
- inositol phosphates formation ([2]; hepatocytes infected in vitro with AdCMV.mTRH-R, dependent on vector dose): increased amounts of inositol phosphates
- inositol phosphates formation [2, 5]: no increase in inositol phosphates
- internalization of ligand-receptor complex ([3]; hepatocytes infected with AdCMV.mTRH-R, not shown): internalized
- specific binding of methyl-TRH [3, 5]: no specific binding
- Kd [3, 6]: 3.18 ± 0.39 nM
- internalization of methyl-TRH complex [4, 7]: underwent internalization
- methyl-TRH specific binding ([4]; hepatocytes from animals receiving AdCMV.mTRH-R in vivo): high levels of methyl-TRH specific binding
- methyl-TRH specific binding ([4]; hepatocytes from naive animals or animals receiving control vector AdCMV.βgal): no specific methyl-TRH binding
- Kd [4, 6]: 2.51 ± 0.32 nM
- increase in blood glucose over baseline from 15 to 55 min after administration (Sprague-Dawley rats; methyl-TRH 500 μg IV, rats given AdCMV.mTRH-R intravenously 5 days previously): 1.73 ± 0.26 mM
- change in blood glucose over baseline (Sprague-Dawley rats; methyl-TRH IV, control rats given saline (similar with AdCMV.Null) 5 days previously): small increase in blood glucose
- time of peak rise in blood glucose after administration (Sprague-Dawley rats; methyl-TRH IV, rats given AdCMV.mTRH-R intravenously 5 days previously): 15 min
- time for which elevation in blood glucose was maintained (Sprague-Dawley rats; methyl-TRH IV, rats given AdCMV.mTRH-R intravenously 5 days previously, experiment terminated at 55 min): at least 55 min
- rise in blood glucose compared with intravenous vector group (Sprague-Dawley rats; methyl-TRH IV, rats given AdCMV.mTRH-R via the portal vein 5 days previously): superimposable
- period of increase in formation of inositol phosphates after addition [1, 7]: at least 1 hr

Compound: [Arg^8]vasopressin (CYFQNCPRG-NH2; disulfide 1-6; ends not checked; UniProt P01185 20-28, looked up) [positive control for rise in blood glucose]
- change in blood glucose (Sprague-Dawley rats; positive control, intravenous route, 55 min evaluation, not shown): an increase in blood glucose, followed by a decrease
